Measurements taken from paper PMC5423902, “CXCL9-Derived Peptides Differentially Inhibit Neutrophil Migration In Vivo through Interference with Glycosaminoglycan Interactions” (Frontiers in Immunology, 2017).

Legend:
[1] = system: CXCL8-induced neutrophil migration; assay: CXCL8-induced neutrophil migration to the knee cavity; format: in vivo, mouse (C57BL/6); settings: 66 µg peptide i.v., 1 µg CXCL8 intra-articular, C57BL/6, 3 h, n ≥ 5, Figure 5
Procedure: In vivo neutrophil extravasation to the peritoneal or the knee cavity was examined, respectively, by intraperitoneal or intra-articular injection, of endotoxin-free recombinant CXCL8(1-77) (PeproTech) or vehicle (PBS) in female NMRI or C57BL/6 mice, as described previously ([42], [48]). Simultaneously, synthetic CXCL9 peptide was co-injected either intraperitoneally or injected intravenously. After 2 h (peritoneal cavity) or 3 h (knee cavity), mice were sacrificed. The peritoneal cavity was washed with saline enriched with 2% FCS and 20 U/ml heparin and total leukocyte counts were determined. For the preparation of cytospins, 10^5 cells were used and absolute number and percentage of neutrophils in the lavages were determined in duplicate independently by two researchers by differential microscopic counting. […] The number of total leukocytes was determined by counting leukocytes in a Neubauer chamber after staining with Turk’s solution. […]
Figure 5 CXCL9(74-93) inhibits CXCL8-induced but not monosodium urate (MSU) crystal-induced neutrophil migration to the knee cavity. […] Simultaneously, 66 µg of CXCL9(74-93) was injected intravenously and 3 h post injection the number of total cells (A) and neutrophils (B) were evaluated by washing the cavity and differentially counting the leukocyte subtypes on May-Grunwald-Giemsa-stained cytospins. […]

[2] = system: CXCL8-induced neutrophil migration; assay: CXCL8-induced neutrophil migration to the peritoneal cavity; format: in vivo, mouse (NMRI); settings: for neutrophils in the peritoneal cavity upon CXCL8: significant; for neutrophils in the peritoneal cavity upon CXCL8 / percentage of neutrophils in the peritoneal cavity upon CXCL8: n ≥ 5
Procedure: In vivo neutrophil extravasation to the peritoneal or the knee cavity was examined, respectively, by intraperitoneal or intra-articular injection, of endotoxin-free recombinant CXCL8(1-77) (PeproTech) or vehicle (PBS) in female NMRI or C57BL/6 mice, as described previously ([42], [48]). Simultaneously, synthetic CXCL9 peptide was co-injected either intraperitoneally or injected intravenously. After 2 h (peritoneal cavity) or 3 h (knee cavity), mice were sacrificed. The peritoneal cavity was washed with saline enriched with 2% FCS and 20 U/ml heparin and total leukocyte counts were determined. For the preparation of cytospins, 10^5 cells were used and absolute number and percentage of neutrophils in the lavages were determined in duplicate independently by two researchers by differential microscopic counting. The cells present in the tibiofemoral articulation were harvested by washing the cavity with 10 µl of 3% (w/v) bovine serum albumin in PBS and diluted in 90 µl of 3% (w/v) bovine serum albumin in PBS. The number of total leukocytes was determined by counting leukocytes in a Neubauer chamber after staining with Turk’s solution. Differential counts were obtained from cytospin preparations by evaluating the percentage of each leukocyte type on a slide stained with May-Grunwald-Giemsa solution.
Figure 4 The COOH-terminal peptides of CXCL9 inhibit CXCL8-induced neutrophil migration to the peritoneal cavity. CXCL8(1-77) was injected into the peritoneal cavity of NMRI mice (n ≥ 5) simultaneously with an intraperitoneal (A) or intravenous (B,C) injection of CXCL9(74-103) or CXCL9(74–93). The number of neutrophils in the peritoneal cavity, 2 h post injection, were evaluated by differentially counting the leukocyte subtypes on Hemacolor-stained cytospins. The neutrophil counts are shown for every individual mouse, and the horizontal lines denote the median percentage. To detect statistically significant differences, the Mann–Whitney U-test was carried out (*p < 0.05; **p < 0.01; ***p < 0.005).

[3] = system: MSU crystal-induced neutrophil migration; assay: MSU crystal-induced gout in mice (neutrophil migration to knee); format: in vivo, mouse (C57BL/6); settings: 66 µg peptide i.v.; MSU crystals 100 µg, C57BL/6, 3 h, n ≥ 5; Figure 5
Procedure: Monosodium urate crystals were prepared as described previously ([42], [49]) and were injected (100 µg in 10 µl) in the tibiofemoral knee joint of C57Bl/6 mice. A group of mice received CXCL9 peptide or vehicle intravenously and the cells present in the tibiofemoral articulation were harvested 3 h after MSU crystal administration. The total and differential leukocyte counts were determined.
Figure 5 CXCL9(74-93) inhibits CXCL8-induced but not monosodium urate (MSU) crystal-induced neutrophil migration to the knee cavity. CXCL8(1-77) (1 µg) or MSU crystals (100 µg) were injected into the tibiofemoral articulation of C57BL/6 mice (n ≥ 5). Simultaneously, 66 µg of CXCL9(74-93) was injected intravenously and 3 h post injection the number of total cells (A) and neutrophils (B) were evaluated by washing the cavity and differentially counting the leukocyte subtypes on May-Grunwald-Giemsa-stained cytospins. The total numbers of leukocytes and neutrophils are shown for every individual mouse, and the horizontal lines denote the median number of cells. To detect statistically significant differences, the Mann–Whitney U-test was carried out (*p < 0.05; **p < 0.01; ***p < 0.005).

[4] = system: CXCL8(1-77) binding to heparan sulfate (HS); assay: Competition with CXCL8 for binding to immobilized HS (ELISA-like); design: species or system human; settings: CXCL8(1-77) 0-300 nM, n ≥ 4, Figure 3B
Procedure: The ability of the COOH-terminal peptides of CXCL9 and CXCL4 to compete for GAG binding with the inflammatory chemokines CXCL8 and CXCL1 was evaluated on heparin-binding plates [BD Biosciences or produced by Jason Whittle (School of Engineering/Future Industries Institute, University of South Australia, Australia)] ([42], [47]). In brief, GAGs (heparin, HS, and CS; Iduron; 25 µg/ml) were coated overnight at room temperature. Dilutions of COOH-terminal CXCL9 or CXCL4 peptide combined with recombinant human CXCL8(1-77) or recombinant murine CXCL1(1-72) (Peprotech, Rocky Hill, NJ, USA) were added in duplicate and incubated for 2 h at 37°C. Subsequently, bound CXCL8 or CXCL1 was detected with biotinylated polyclonal rabbit anti-human CXCL8 or biotinylated polyclonal goat anti-mouse CXCL1 (Peprotech) and horse radish peroxidase-labeled streptavidin. Finally, the peroxidase activity was quantified at 450 nm.
Figure 3 CXCL9(74-93) competes with CXCL8 for binding to heparin, heparan sulfate (HS), and cellular glycosaminoglycans (GAGs). Competition between CXCL8 and COOH-terminal CXCL9 or CXCL4 peptides for binding to immobilized heparin (A) or HS (B) and to Chinese hamster ovary (CHO) cells (C) was performed. […] Bound CXCL8 was detected with biotinylated anti-human CXCL8 antibodies. (C) Binding of NH2-terminally biotinylated CXCL8(1-77) (300 nM) to CHO cells in the presence or absence of an excess CXCL9 peptide was detected by streptavidin-allophycocyanin and flow cytometry. The mean (± SEM) percentage inhibition of binding of CXCL8(1-77) to heparin, HS or cellular GAGs is indicated on the y-axis (n ≥ 4). Statistical comparison of the different competitors with CXCL9(74–103) was performed using the Mann–Whitney U-test (*p < 0.05).

[5] = system: MSU crystal-induced neutrophil migration; settings: murine model; cited from earlier work
Description: Because of their essential role for the migration of leukocytes, chemokines and their GPCRs can serve as potential targets for the development of new anti-inflammatory drugs ([24]–[26]). Several neutralizing ligands or antibodies, modified chemokines or small molecules have been developed as antagonists ([27]–[30]). However, only two chemokine receptor antagonists are currently used as therapeutics, namely, Maraviroc (a CCR5 antagonist) and AMD3100 (a CXCR4 antagonist) ([31], [32]). Remarkably, these antagonists are not used as anti-inflammatory drugs, but, respectively, as an inhibitor of hum ...

| Substance | neutrophils in the joint upon CXCL8 ([1]; control 13.3 × 10^3) | percentage of neutrophils in the joint upon CXCL8 ([1]; control 60.5%) [%] | neutrophils in the peritoneal cavity upon CXCL8 ([2]; 66 µg peptide i.v. (equal molar amount to 108 µg CXCL9(74-103)), CXCL8 i.p., control 192 × 10^4, Figure 4C) | percentage of neutrophils in the peritoneal cavity upon CXCL8 ([2]; 66 µg peptide i.v., CXCL8 i.p., control 19%, Figure 4C) [%] | potency against CXCL8 relative to CXCL9(74-103) ([2]; i.v., peritoneal model, Figure 4C) | inhibition of MSU crystal-induced neutrophil migration to the joint [3] | inhibition of CXCL8 binding on HS-coated plates [4] | reduction of CXCL8-induced neutrophil recruitment to peritoneal cavity ([2]; 12 µg peptide i.p., Figure 4A) | reduction of CXCL8-induced neutrophil recruitment to peritoneal cavity ([2]; 36 µg peptide i.p., Figure 4A) | neutrophil influx to peritoneal cavity upon CXCL8 ([2]; 36 µg peptide i.v., not significant, Figure 4B) | neutrophils in the peritoneal cavity upon CXCL8 ([2]; 108 µg peptide i.p. co-injected with 1 µg CXCL8 i.p., NMRI, 2 h, CXCL8 alone about 142 × 10^4, Figure 4A) | percentage of neutrophils in the peritoneal cavity upon CXCL8 ([2]; 108 µg peptide i.p. co-injected with 1 µg CXCL8 i.p., NMRI, 2 h, Figure 4A) [%] | reduction of CXCL8-induced neutrophil migration to peritoneal cavity ([2]; lower doses i.v., Figure 4B) | percentage of neutrophils in the peritoneal cavity upon CXCL8 ([2]; peptide i.v. (highest dose tested, dose not given), CXCL8 i.p., control 16.5%, Figure 4B) [%] | neutrophils in the peritoneal cavity upon CXCL8 ([2]; peptide i.v. (highest dose tested, dose not given), CXCL8 i.p., control 148 × 10^4, Figure 4B) | inhibition of neutrophil extravasation in MSU crystal-induced gout [5] |
| --- | --- | --- | --- | --- | --- | --- | --- | --- | --- | --- | --- | --- | --- | --- | --- | --- |
| 74KKKQKNGKKHQKKKVLKVRK93 [CXCL9(74-93), COOH-terminal peptide of CXCL9 lacking the 10 COOH-terminal amino acids of CXCL9(74-103)] | 0.67 × 10^3 neutrophils | 17.5 | 65 × 10^4 neutrophils | 8.25 | equally potent inhibitor of CXCL8 than CXCL9(74-103) | could not inhibit MSU crystal-induced neutrophil migration to the joint | equally efficient in inhibiting CXCL8 binding | – | – | – | – | – | – | – | – | – |
| 74KKKQKNGKKHQKKKVLKVRKSQRSRQKKTT103 [CXCL9(74-103), COOH-terminal peptide of CXCL9] | – | – | – | – | – | – | equally efficient in inhibiting CXCL8 binding | failed to reduce CXCL8-induced neutrophil recruitment | failed to reduce CXCL8-induced neutrophil recruitment | a trend toward a lower neutrophil influx | 45 × 10^4 neutrophils | 6.6 | not able to reduce the neutrophil migration significantly | 10.1 | 81 × 10^4 neutrophils | able to inhibit neutrophil extravasation |
